Earlier results in patent US9763897B2, “Therapeutic astaxanthin and phospholipid composition and associated method” (U.S. NUTRACEUTICALS, LLC, priority 2010, dated 2017).

Key:
[1] = 6 mg per day, eight weeks, healthy adults
[2] = system: LDL cholesterol oxidation; details: 4 mg astaxanthin per day for two weeks
lens epithelial cells = details: umol/L concentrations
[3] = system: pro-oxidant activity of Vioxx (membrane lipid per-oxidation); details: in vitro
[4] = system: C-Reactive Protein (C-RP)
LDL cholesterol = details: 3.6 mg astaxanthin per day for two weeks

Q: For `CC1=C(/C=C/C(C)=C/C=C/C(C)=C/C=C/C=C(C)/C=C/C=C(C)/C=C/C2=C(C)C(=O)[C@@H](O)CC2(C)C)C(C)(C)C[C@H](O)C1=O` [free astaxanthin diol], which “uptake relative to esterified astaxanthin” value (human plasma, versus esterified astaxanthin) is on record?
A: 4-5 times

Q: Which results are given for `CC1=C(/C=C/C(C)=C/C=C/C(C)=C/C=C/C=C(C)/C=C/C=C(C)/C=C/C2=C(C)C(=O)[C@@H](O)CC2(C)C)C(C)(C)C[C@H](O)C1=O` [Astaxanthin, 3,3′-dihydroxy-β-β-carotene-4,4′-dione]?
A: negative effect of supplementation [1]: no negative effect; reduction of LDL cholesterol oxidation [2]: 26%; effect on UVB induced lipid per-oxidative mediated cell damage (lens epithelial cells): suppresses UVB induced lipid per-oxidative mediated cell damage; effect on pro-oxidant activity of Vioxx [3]: negate the pro-oxidant activity of Vioxx; decrease in C-reactive protein scores ([4]; 4 mg astaxanthin for eight weeks): 21%; drop in serum C-RP levels ([4]; human subjects with high risk C-RP levels, three months of treatment): 43%; protection of LDL cholesterol against induced in vitro oxidation (LDL cholesterol): protects LDL cholesterol against induced in vitro oxidation

Q: For `CCCCCCCCCCCCCCCC(=O)O[C@H]1CC(C)(C)C(/C=C/C(C)=C/C=C/C(C)=C/C=C/C=C(C)/C=C/C=C(C)/C=C/C2=C(C)C(=O)[C@@H](OC(=O)CCCCCCCCCCCCCCC)CC2(C)C)=C(C)C1=O` [3R,3′R-astaxanthin dipalmitate, (3R,3′R-astaxanthin dipalmitate, reference compound], which “relative absorption of astaxanthin compared to the other two isomers” value (men, Coral-Hinostroza et al. (2004)) is on record?
A: higher relative absorption
